Patent US3956234A, “Inhibiting ozone deterioration of rubbers” (Sumitomo Chemical Company, Limited, priority 1973, dated 1976)

Experiments:
[1] = Static ozone deterioration test, Example 1 natural rubber compound (pale crape No. 1); settings: Table 2, static, 20 % elongation, 2 parts added, ozone 35 ± 5 pphm, 50 ± 10°C
Description: (§1) Two parts of each of the present compounds in Table 1 (sample numbers A to H) and, as a counterpart, Antiozonant AFD (a registered trademark of Bayer Co. Ltd.) represented by sample number I were individually mixed thoroughly with the following rubber compound,
(§2) and each resulting mixture was well milled on a 2-roll mill of 10 inches in diameter and then vulcanized thereon at 140°C. for 20 minutes. A blank test was also carried out at the same time for comparison, using the rubber compound alone above mentioned.
(§3) The static and dynamic ozone deterioration tests were made on the test pieces on the Ozone Weather-O-Meter produced by Toyo Rika Co. Ltd. In the static test, the Dumbbel No. 2 test pieces were kept at a 20 % elongation in the stream of ozone during the test, and during the latter test, the test pieces were given repeated elongation of from 0 up to 20 % once a second in the stream of ozone.
(§4) The tests were carried out under the condition that the ozone concentration be 35 ± 5 pphm and the test temperature be 50 ± 10°C., and the time required for the generation of visually observable cracks on the surface of the vulcanized rubber was taken as a crack-generating time which was used as the measure of ozone-resistance.

[2] = Dynamic ozone deterioration test, Example 1 natural rubber compound (pale crape No. 1); settings: Table 3, dynamic, repeated elongation 0 up to 20 % once a second, 2 parts added, ozone 35 ± 5 pphm, 50 ± 10°C
Description: as §1, §2, §3, §4

[3] = Static ozone deterioration test, Example 2 SBR compound; settings: Table 4, static, 20 % elongation, 2 parts added, ozone 35 ± 5 pphm, 50 ± 10°C
Description: as §3, §4
(§5) Two parts of each of the present compounds in Table 1 (sample numbers A to H) and, as a counterpart, Antiozonant AFD represented by sample number I were individually mixed thoroughly with the following rubber compound,
(§6) and each resulting mixture was well milled on a 2-roll mill of 10 inches in diameter and then vulcanized thereon at 150°C. for 30 minutes. A blank test was also carried out at the same time for comparison, using the rubber compound alone above mentioned.

[4] = Dynamic ozone deterioration test, Example 2 SBR compound; settings: Table 5, dynamic, repeated elongation 0 up to 20 %, 2 parts added, ozone 35 ± 5 pphm, 50 ± 10°C
Description: as §3, §4, §5, §6

[5] = Static ozone deterioration test, Example 3 chloroprene rubber compound; settings: Table 6, static, 20 % elongation, 1.5 parts added, ozone 90 ± 5 pphm, 50 ± 10°C
Description: as §3
(§7) be 50 ± 10°C., and the time required for the generation of visually observable cracks on the surface of the vulcanized rubber was taken as a crack-generating time which was used as the measure of ozone-resistance. […]
(§8) A blank test was also carried out at the same time for comparison, using the rubber compound alone above mentioned.

[6] = Dynamic ozone deterioration test, Example 3 chloroprene rubber compound; settings: Table 7, dynamic, repeated elongation 0 up to 20 %, 1.5 parts added, ozone 90 ± 5 pphm, 50 ± 10°C
Description: as §3, §7, §8

Which Crack-generating time [1] does the source give for CC(C)SCCC#N [B] here?
Its Crack-generating time is 15 h.

What about the Crack-generating time [2] of the same compound?
Its Crack-generating time is 16 h.

What about the Crack-generating time [3] of the same compound?
Its Crack-generating time is 11 h.

And the Crack-generating time [4]?
Its Crack-generating time is 14 h.

What about the Crack-generating time [5] of the same compound?
The Crack-generating time was 175 h.

And the Crack-generating time [6]?
Its Crack-generating time is 185 h.

For CC(C#N)CSCC(C)C#N (stereo not drawn) [C], which Crack-generating time [1] is on record?
Its Crack-generating time is 18 h.

What about the Crack-generating time [2] of the same compound?
The Crack-generating time was 20 h.

What about the Crack-generating time [3] of the same compound?
Its Crack-generating time is 13 h.

What about the Crack-generating time [4] of the same compound?
Its Crack-generating time is 18 h.

What about the Crack-generating time [5] of the same compound?
The Crack-generating time was 190 h.

What about the Crack-generating time [6] of the same compound?
Its Crack-generating time is 210 h.

Which Crack-generating time [1] does the source give for N#CCCCSCCCC#N [D] here?
The Crack-generating time was 19 h.

And the Crack-generating time [2]?
The Crack-generating time was 22 h.

And the Crack-generating time [3]?
Its Crack-generating time is 15 h.

And the Crack-generating time [4]?
The Crack-generating time was 19 h.

What about the Crack-generating time [5] of the same compound?
Its Crack-generating time is 195 h.

And the Crack-generating time [6]?
The Crack-generating time was 215 h.

Which results are given for CCC(CCCC#N)CSCC(CC)CCCC#N (stereo not drawn) [E]?
Crack-generating time [1]: 16 h; Crack-generating time [2]: 16 h; Crack-generating time [3]: 11 h; Crack-generating time [4]: 15 h; Crack-generating time [5]: 180 h; Crack-generating time [6]: 190 h

Which results are given for CCCCCCCCCCCCCCCCCCSCCC#N [F]?
Crack-generating time [1]: 14 h; Crack-generating time [2]: 15 h; Crack-generating time [3]: 10 h; Crack-generating time [4]: 13 h; Crack-generating time [5]: 170 h; Crack-generating time [6]: 180 h

With N#CCCSCCC#N [Sample A] as the compound, how does the Crack-generating time [1] read?
Its Crack-generating time is 20 h.

What about the Crack-generating time [2] of the same compound?
The Crack-generating time was 24 h.

What about the Crack-generating time [3] of the same compound?
Its Crack-generating time is 16 h.

What about the Crack-generating time [4] of the same compound?
Its Crack-generating time is 21 h.

And the Crack-generating time [5]?
The Crack-generating time was 200 h.

What about the Crack-generating time [6] of the same compound?
The Crack-generating time was 220 h.
